Molecular target: T1, Cysteinyl leukotriene receptor 1 (Cavia porcellus, UniProt Q2NNR5)
T1 sequence (Q2NNR5 whole entry): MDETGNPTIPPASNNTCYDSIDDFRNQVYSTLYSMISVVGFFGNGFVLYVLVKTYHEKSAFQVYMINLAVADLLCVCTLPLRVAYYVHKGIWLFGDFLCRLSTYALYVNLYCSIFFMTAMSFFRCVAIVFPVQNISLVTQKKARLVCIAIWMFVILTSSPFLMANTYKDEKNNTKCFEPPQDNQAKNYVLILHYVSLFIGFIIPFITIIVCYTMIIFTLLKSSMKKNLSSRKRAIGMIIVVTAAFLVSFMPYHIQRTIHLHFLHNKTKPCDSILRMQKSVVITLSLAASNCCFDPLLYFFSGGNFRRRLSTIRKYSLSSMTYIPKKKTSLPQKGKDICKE
Experiment: Dissociation constant for CysLT1 receptor was determined by the displacement of [3H]LTD4 from guinea pig lung membranes
Format: tissue-based, Membrane

Kd: 0.0000301 M l-1
SMILES: COc1cc(C(=O)NS(=O)(=O)c2ccccc2)ccc1Cn1ncc2ccc(NC(=O)OC3CCCC3)cc21 [ICI-198615]
